The subject of series [1] is rat atrioventricular node. Nature of the series: Atrioventricular block experiment by PDT in in vivo system. On the set-up: species or system Wistar rat. On the procedure: Wistar rats (male, 8 weeks old) were anesthetized by inhalation of diethyl ether, four limbs and front teeth were fixed, a tube was inserted into the bronchial tube, and an artificial ventilator (Natsume Seisakusho Co., Ltd.) and a forane vaporizer anesthesia apparatus (Shinano Instrument, Co., Ltd.) were introduced into the body. Thoracotomy was performed between the right chest rib, and the experiment was performed while the heart was exposed.
A solution obtained by dissolving Laserphyrin in 5 ml of physiological saline was administered to venous blood from the right ventricular cavity. The photosensitizer dose (D) and the interval to photoradiation in each experiment were as follows.
Experiment 1: D=2 mg/kg, laser irradiation at interval of 5 and 60 min
Experiment 2: D=10 mg/kg, laser irradiation at interval of 2 and 30 min
A semiconductor laser beam (SONY, wavelength peak, 670 nm band) was transmitted using a quartz fiber with a laser intensity of 500 mW/cm^2 at the end. The end was attached to a portion in the vicinity of the base of the aorta, and photoradiation was performed towards the atrioventricular node (existing in a portion approx. 3 mm deep from the surface) in the right atrial inner wall for 10 min with the total dose of laser irradiation of 300 J/cm^2 (FIG. 30).
A needle electrode was inserted into four limbs of a rat, electrocardiogram leads I, II, and III were induced with an electrocardiograph (Nihon Kohden Corporation), and signals were recorded using a biosignal recording/analyzing apparatus and analyzed (FIG. 31). FIG. 31 is a schematic view showing an in vivo experimental system.
After completion of the experiment, the rat chest was closed and sutured. Then, a normal feed and water were given and allowed to survive, and anesthetized again at approx. 2 weeks so that electrocardiography should be performed.
The heart sample of Experiment 1 was isolated after electrocardiography at 2 weeks (the isolation method was the same as in Example 6), 4% paraformaldehyde was introduced from the coronary artery, and the perfusion-fixed sample was immersed in approx. 40 ml of the solution and left on a mix roller overnight. Then, a HE sample and an Azan stained specimen at a laser irradiation site were prepared and observed under a microscope.

Series [2] can be described thus: Fluorescence observation of photosensitizer distribution in rat cardiac muscle tissue over time. As to conditions: 2 mg/kg i.v. The series is classed as in vivo, Wistar rat. How it is done: As a tissue, the right ventricular free wall isolated from a Wistar rat (male, 8 to 10 weeks old) was used. Immediately after animals were allowed to inhale vaporized diethyl ether, heparin and Nembutal (0.2 and 0.5 ml, respectively) were administered intraperitoneally at a dose of 2 mg/kg, and a solution of Laserphyrin (Meiji Seika Kaisha, Ltd.) dissolved in physiological saline at a dose of 0.5 ml were intravenously injected from the lower extremity vena cava. The heart was isolated at 5 min (Experiment 1), 30 min (Experiment 2), and 60 min (Experiment 3) after injection, and the target tissue was ablated. […] As a sample for fluorescence observation, a cross-section of the above-mentioned tissue was excised in a thickness of 10 μm using a freezing microtome in the direction in which the base and the apex of the heart are aligned, placed on a slide glass, and dried for one or two days.
A light of a mercury lamp (Olympus Corporation) was attenuated with an ND filter (Olympus Corporation, 12%), and only a light in the 400-nm band was extracted with a band path filter (Olympus Corporation) and delivered to the sample as an excitation light. Fluorescence of the photosensitizer was selectively extracted with a dichroic mirror (OMEGA, 636 nm-) and a band path filter (OMEGA, 695 nm; half bandwidth, 27.5 nm) and photographed with a CCD camera. […]

Series [3] concerns isolated ventricular muscle tissue. Put plainly: Formation of electrical conduction block by PDT in isolated cardiac muscle tissue. On the set-up: species or system Wister rat. As to conditions: 4.3 μg/ml. How it is done: An electrical conduction block was formed by performing PDT using a cardiac muscle tissue.
A cardiac muscle tissue was isolated from a Wister rat, immersed in a perfusion fluid (Tyrode's solution [aerated with 95% O2 and 5% CO2 gases and stored at 37° C. in a constant-temperature apparatus]), spread, fixed on the floor (made of silicon) of a tissue bath with a tungsten wire to prepare a spread sample (maximum 1.5 cm long, 1.0 cm width, 0.18 cm thickness) of an isolated ventricular muscle. A perfusion fluid was passed through the spread sample and stabilized by allowing to stand for approx. 3 h. At this time, the perfusion fluid was not reused.
As a photosensitizer, talaporfin sodium was dissolved in a perfusion fluid at 4.3 μg/ml, and 300 cc was circulated and perfused. It is assumed that, when a photosensitizer is intravenously injected to a 300-g rat at approx. 2 mg/kg, the photosensitizer is dissolved at about this concentration in the fluid throughout the body. After loading for 2 h, a liquid level of the perfusion fluid was lowered to the tissue surface or lower, and the spread tissue was irradiated with a laser beam.
The irradiation laser beam was a continuous semiconductor laser beam (peak wavelength, 670.8 nm) and was delivered to the tissue from an irradiation port of 0.0078 cm^2 at the fiber end with an intensity of 150 mW/cm^2 in a contact state. While moving the fiber, a 0.1-cm^2 (0.1 cm length×1 cm width) region of the tissue surface was irradiated with a laser beam for 5 min. Irradiation was performed at 3.5 J/cm^2 in terms of total energy density.
The tissue action potential was measured as follows. An electrical stimulus of 2 Hz and 50 mA was applied from a bipolar electrode (0.2φ silver wire) using a stimulator, and a potential of the tissue surface was led with a bipolar measuring electrode (0.25φ stainless wire).
FIGS. 8A to 8F show changes in the potential of the spread tissue. In FIGS. 8A to 8F, the upper line represents potential changes at site 1 in FIG. 7. The lower line represents potential changes at site 2 in FIG. 7. The unit of the vertical axis is mV.

[4] abbreviates: Experiment 2: 10 mg/kg, 300 J/cm^2.
Setting [5] is: Experiment 2: 10 mg/kg, interval 30 min, 300 J/cm^2.

As for `C=Cc1c(C)c2cc3nc(c(CC(=O)N[C@@H](CC(=O)O)C(=O)O)c4[nH]c(cc5nc(cc1[nH]2)C(C)=C5CC)c(C)c4C(=O)O)[C@@H](CCC(=O)O)[C@@H]3C` [talaporfin sodium, mono-L-aspartyl chlorine 6], the “electrocardiogram after 2 weeks” value in series [1] (Experiment 1: 2 mg/kg, 300 J/cm^2) was “the 2:1 atrioventricular block disappeared, and a normal atrioventricular conduction was confirmed”. Also, in series [1] (Experiment 1: 2 mg/kg, 300 J/cm^2, FIG. 36), the “histology (Azan stain) at laser irradiation site at 2 weeks” value is “a scar tissue (a damaged cellular tissue was replaced with the surrounding collagenic fibers) is observed”. Also, the “atrioventricular block (electrocardiogram)” value is “an atrioventricular block disappeared during the process of photoradiation” in series [1] (Experiment 1: 2 mg/kg, interval 5 min, 300 J/cm^2); “a 2:1 atrioventricular block occurred, but was resolved thereafter” in series [1] (Experiment 2: 10 mg/kg, interval 2 min, 300 J/cm^2); “a 2:1 atrioventricular block and a complete atrioventricular block occurred from immediately after photoradiation” in series [1] (setting [5]). Besides, the “atrioventricular block (electrocardiogram) after photoradiation” value in series [1] (Experiment 1: 2 mg/kg, interval 60 min, 300 J/cm^2) is given as 2:1 atrioventricular block. In addition, in series [1] (Experiment 1, laser irradiation dose 300 J/cm^2), the “completeness of conduction block” value is given as “the conduction block was incomplete”. Besides, in series [1] (setting [4]), the “electrocardiogram at 2 weeks” value is on record as “a finding of a complete atrioventricular block”. In series [1] (setting [4]), the “time the conduction block effect by PDT was maintained” value came to 2 weeks. Further, the “electrocardiogram finding after completion of photoradiation” value in series [1] (setting [5]) was “extrasystoles of the ventricle were observed”. For the same compound, the “photosensitizer distribution in cardiac muscle tissue” value in series [2] (30 and 60 min after injection) was “white streaks were observed all over the images at 30 and 60 min, showing the existence of the photosensitizer in the surroundings”; in series [2] (approx. 5 min after injection), “almost no photosensitizer was present immediately after the intravenous injection”. In addition, the “time without electrical conduction after block” value in series [3] (loading 2 h, 3.5 J/cm^2) is recorded as at least 1 h. Besides, the “electrical conduction (potential at site 2)” value in series [3] (loading 2 h, 3.5 J/cm^2, 5 min after the completion of laser irradiation) was “the electrical conduction route was completely blocked”; in series [3] (loading 2 h, 150 mW/cm^2, 5 min after the start of laser irradiation), “a portion of the stimulus conduction route is blocked”. In series [3] (3.5 J/cm^2, FIG. 9), the “cell conditions in tissue sample at PDT site” value is given as “no major abnormality was observed in the cell conditions”.
